Target: T1, TLR4 (Mus musculus, UniProt Q9QUK6)
T1 construct: endogenous in cells; host or cells: RAW264.7 (murine macrophage cell line)
T1 sequence (Q9QUK6 26-835): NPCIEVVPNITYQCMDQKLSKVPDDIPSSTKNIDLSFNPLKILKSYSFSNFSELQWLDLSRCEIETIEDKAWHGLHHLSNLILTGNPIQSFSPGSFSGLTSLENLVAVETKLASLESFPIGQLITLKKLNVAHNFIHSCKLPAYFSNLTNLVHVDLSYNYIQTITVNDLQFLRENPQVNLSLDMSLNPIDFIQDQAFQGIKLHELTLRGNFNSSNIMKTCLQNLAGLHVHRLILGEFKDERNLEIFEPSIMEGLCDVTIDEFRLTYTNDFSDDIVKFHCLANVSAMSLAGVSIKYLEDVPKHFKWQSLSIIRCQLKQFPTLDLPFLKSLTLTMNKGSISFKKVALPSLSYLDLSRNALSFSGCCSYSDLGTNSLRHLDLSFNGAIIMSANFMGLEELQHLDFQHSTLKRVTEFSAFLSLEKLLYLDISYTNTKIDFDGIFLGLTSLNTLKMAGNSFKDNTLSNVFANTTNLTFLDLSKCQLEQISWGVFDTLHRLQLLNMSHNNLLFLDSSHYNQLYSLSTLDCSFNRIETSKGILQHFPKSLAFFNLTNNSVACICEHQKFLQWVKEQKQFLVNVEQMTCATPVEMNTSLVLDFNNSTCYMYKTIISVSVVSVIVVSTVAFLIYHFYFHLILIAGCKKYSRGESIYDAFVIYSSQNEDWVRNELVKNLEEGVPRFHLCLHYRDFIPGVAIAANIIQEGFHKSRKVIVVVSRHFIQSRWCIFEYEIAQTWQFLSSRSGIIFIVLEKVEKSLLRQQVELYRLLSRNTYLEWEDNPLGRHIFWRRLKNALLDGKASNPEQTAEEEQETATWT
T1 sequence (Q9JHF9 19-160 partner): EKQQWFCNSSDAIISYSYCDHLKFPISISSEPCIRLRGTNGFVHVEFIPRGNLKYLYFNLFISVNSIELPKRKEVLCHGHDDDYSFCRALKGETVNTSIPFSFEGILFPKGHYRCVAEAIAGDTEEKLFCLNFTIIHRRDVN
Test: Inhibitory effect with respect to NO production (LPS/interferon γ-stimulated RAW264.7)
Format: cell-based, murine
Conditions: RAW264.7 cells, LPS 1.25 ng/mL and mouse interferon γ 0.2 ng/mL, nitrite ion in culture supernatant
Procedure: The inhibitory effect on TLR4 was determined using the inhibition rate due to the test compound with respect to NO production as a result of addition of lipopolysaccharide (LPS) using murine macrophage cell line RAW264.7. The cells were adjusted to 2×10^6 cells/mL using RPM1-1640 culture medium (phenol red free) supplemented with 10% inactivated bovine fetal serum, and were plated on 384 well plate so as to contain 6×10^4 cells/30 μL per well. Thereafter the cells were cultured at 37° C. overnight under 5% CO2/95% air. The test compound dissolved in DMSO was diluted 200 times using RPM1-1640 culture medium and adjusted so as to form a compound concentration of 500 nM. The prepared test compound 10 μL (final concentration 100 nM) was added to the cells, and LPS (Sigma) and mouse interferon γ (Wako Pure Chemicals) were added in amounts of 10 μL so as to form final concentrations of 1.25 ng/mL and 0.2 ng/mL respectively. The cells were further cultured overnight, and then the nitrite ion (stable NO metabolite) concentration in the culture supernatant was measured as an index of NO production. The nitrite ion concentration was assayed by adding 10 μL of 20 μg/mL 2,3-diamino naphthalene (DAN) dissolved in 0.2N HCl to 20 μL culture supernatant, incubating at room temperature for ten minutes, and then adding 10 μL of 0.5N NaOH, and measuring the fluorescent value at 460 nm (excitation wavelength 355 nm) using an EnVision plate reader (Perkin Elmer). The NO production inhibition rate (%) was calculated using the value without the addition of stimulating agent as control of 100% inhibition, and the value without the addition of the compound as control of 0% inhibition.

Compound | NO production inhibitory effect at 100 nM (% inhibition)
CCOC(=O)C1=CC2(CCC1S(=O)(=O)C1CCc3c(Cl)cccc31)O[C@@H](CO)[C@H](CO)O2 (stereo partly drawn) [Compound 3, Ethyl (2S,3S)-8-((4-chloro-2,3-dihydro-1H-inden-1-yl)sulfonyl)-2,3-bis(hydroxymethyl)-1,4-dioxaspiro[4.5]dec-6-ene-7-carboxylate] | 110 % inhibition
CCOC(=O)C1=CC2(CCC1S(=O)(=O)C1CCc3ccc(F)c(Cl)c31)O[C@@H](CO)[C@H](CO)O2 (stereo partly drawn) [Compound 10, Ethyl (2S, 3S)-8-((7-chloro-6-fluoro-2,3-dihydro-1H-inden-1-yl)sulfonyl)-2,3-bis(hydroxymethyl)-1,3-dioxaspiro[4.5]dec-6-ene-7-carboxylate] | 100 % inhibition
CCOC(=O)C1=CC2(CCC1S(=O)(=O)C1CCc3c(F)ccc(Cl)c31)O[C@@H](CO)[C@H](CO)O2 (stereo partly drawn) [Compound 9, Ethyl (2S, 3S)-8-((7-chloro-4-fluoro-2,3-dihydro-1H-inden-1-yl)sulfonyl)-2,3-bis(hydroxymethyl)-1,4-dioxaspiro[4.5]dec-6-ene-7-carboxylate] | 110 % inhibition
CCOC(=O)C1=CC2(CCC1S(=O)(=O)C1CCc3cccc(Br)c31)O[C@@H](CO)[C@H](CO)O2 (stereo partly drawn) [Compound 12, Ethyl (2S, 3S)-8-((7-bromo-2,3-dihydro-1H-inden-1-yl)sulfonyl)-2,3-bis(hydroxymethyl)-1,4-dioxaspiro[4.5]dec-6-ene-7-carboxylate] | 100 % inhibition
CCOC(=O)C1=CC2(CCC1S(=O)(=O)C1CCc3cccc(C)c31)O[C@@H](CO)[C@H](CO)O2 (stereo partly drawn) [Compound 13, Ethyl (2S, 3S)-2,3-bis(hydroxymethyl)-8-((7-methyl-2,3-dihydro-1H-inden-1-yl)sulfonyl)-1,4-dioxaspiro[4.5]dec-6-ene-7-carboxylate] | 100 % inhibition
CCOC(=O)C1=CC2(CCC1S(=O)(=O)C1CCc3c(Cl)cccc31)O[C@H](CO)[C@@H](CO)O2 (stereo partly drawn) [Compound 2, Ethyl (2R,3R)-8-((4-chloro-2,3-dihydro-1H-inden-1-yl)sulfonyl)-2,3-bis(hydroxymethyl)-1,4-dioxaspiro[4.5]dec-6-ene-7-carboxylate] | 99 % inhibition
CCOC(=O)C1=CC2(CC[C@H]1S(=O)(=O)[C@H]1CCc3cccc(Cl)c31)O[C@@H](CO)[C@H](CO)O2 [Compound 7, Ethyl (2S,3S,8R)-8-(((1S)-7-chloro-2,3-dihydro-1H-inden-1-yl)sulfonyl)-2,3-bis(hydroxymethyl)-1,4-dioxaspiro[4.5]dec-6-ene-7-carboxylate] | 105 % inhibition
CC1(COC(=O)C2=CC3(CCC2S(=O)(=O)C2CCc4cccc(Cl)c42)O[C@@H](CO)[C@H](CO)O3)CC1 (stereo partly drawn) [Compound 8, (1-methylcyclopropyl)methyl (2S,3S)-8-((7-chloro-2,3-dihydro-1H-inden-1-yl)sulfonyl)-2,3-bis(hydroxymethyl)-1,4-dioxaspiro[4.5]dec-6-ene-7-carboxylate] | 99 % inhibition
CCOC(=O)C1=CCCCC1S(=O)(=O)C1CCc2c(Cl)cccc21 (stereo not drawn) [Compound 1, Ethyl 6-((4-chloro-2,3-dihydro-1H-inden-1-yl)sulfonyl)cyclohex-1-ene-1-carboxylate] | 96 % inhibition
CCOC(=O)C1=CC2(CCC1S(=O)(=O)C1CCc3cc(F)cc(Br)c31)O[C@@H](CO)[C@H](CO)O2 (stereo partly drawn) [Compound 11, Ethyl (2S, 3S)-8-((7-bromo-5-fluoro-2,3-dihydro-1H-inden-1-yl)sulfonyl)-2,3-bis(hydroxymethyl)-1,4-dioxaspiro[4.5]dec-6-ene-7-carboxylate] | 110 % inhibition

Continued, values first:

NO production inhibitory effect at 100 nM (% inhibition) | Compound
107 % inhibition | CCOC(=O)C1=CC2(CC[C@H]1S(=O)(=O)[C@H]1CCCc3cccc(Cl)c31)O[C@@H](CO)[C@H](CO)O2 [Compound 19, Ethyl (2S,3S,8R)-8-(((1S)-8-chloro-1,2,3,4-tetrahydronaphthalen-1-yl)sulfonyl)-2,3-bis(hydroxymethyl)-1,4-dioxaspiro[4.5]dec-6-ene-7-carboxylate]
104 % inhibition | CCOC(=O)C1=CCCC[C@H]1S(=O)(=O)[C@H]1CCc2cccc(Cl)c21 [Compound 18, Ethyl (6R)-6-(((1S)-7-chloro-2,3-dihydro-1H-inden-1-yl)sulfonyl)cyclohex-1-ene-1-carboxylate]
104 % inhibition | CCOC(=O)C1=CCOCC1S(=O)(=O)C1CCc2cccc(Cl)c21 (single isomer, unassigned) [Compound 20]
106 % inhibition | CCOC(=O)C1=CC2(CC[C@H]1S(=O)(=O)[C@H]1CCc3cc(F)cc(Cl)c31)O[C@@H](CO)[C@H](CO)O2 [Compound 15, Ethyl (2S,3S,8R)-8-(((1S)-7-chloro-5-fluoro-2,3-dihydro-1H-inden-1-yl)sulfonyl)-2,3-bis(hydroxymethyl)-1,4-dioxaspiro[4.5]dec-6-ene-7-carboxylate]

Same assay, conditions: RAW264.7 cells, LPS 1.25 ng/mL and mouse interferon γ 0.2 ng/mL, nitrite ion in culture supernatant, 0.1 µM

Compound | NO production inhibitory effect at 100 nM (% inhibition)
CCOC(=O)C1=CC(O)CCC1S(=O)(=O)C1CCc2cccc(Cl)c21 (racemic) [Compound 5, Ethyl 6-((7-chloro-2,3-dihydro-1H-inden-1-yl)sulfonyl)-3-hydroxycyclohex-1-ene-1-carboxylate] | 100 % inhibition
CCOC(=O)C1=CC(O)CCC1S(=O)(=O)C1CCc2cccc(Cl)c21 (racemic) [Compound 4, Ethyl 6-((7-chloro-2,3-dihydro-1H-inden-1-yl)sulfonyl)-3-hydroxycyclohex-1-ene-1-carboxylate] | 110 % inhibition

Now from value to molecule:

NO production inhibitory effect at 100 nM (% inhibition) | Compound
108 % inhibition | CCOC(=O)C1=CC2(CCC1S(=O)(=O)C1CCCc3cccc(Cl)c31)O[C@H](CO)[C@@H](CO)O2 (single isomer, unassigned) [Compound 16]
86 % inhibition | CCOC(=O)C1=CC2(CCC1S(=O)(=O)C1CCCc3cccc(Cl)c31)O[C@H](CO)[C@@H](CO)O2 (single isomer, unassigned) [Compound 17]
